One assay addresses human ACE2 (CHEMBL3736). Particulars: ChEMBL 26, cited from earlier work.
The target in assay [1] is T1, ACE2 (Homo sapiens, UniProt Q9BYF1).
T1 construct: purchased Abcam ab273373
Nature of the assay: ACE2 inhibitor screening kit (Abcam ab273373), fluorescence enzymatic assay, MCA-based peptide substrate. In kind it is biochemical. The following applies: for inhibition at 20 µM: 20 µM final concentration, n = 1, 25 µL, read-out: Inhibition% (primary screen hits). The source says: Despite the commercial availability of ACE2 Inhibitor Screening Kits the optimal HTS protocols are still not published and their validation is still needed. Among available kits the Abcam, ab273373 was used. This assay is based on the ability of active angiotensin-converting enzyme (ACE2) to cleave a synthetic MCA-based peptide substrate (the structure not disclosed by the manufacturer) and release a free fluorophore. The released fluorophore can be easily quantified using a standard fluorescence microplate reader. During this screening campaign, the next milestones were estimated: (i) optimization of the test compounds solutions used volume (without loss of performance and analytical signal recognition); (ii) optimization of reaction volume and concentrations of the reagents; (iii) determination of IC50 for known inhibitor MLN-4760 (EN300-22203532) and reference inhibitor from the kit (the structure not disclosed by manufacturer) in new validated conditions; (iv) primary screening of 577 selected compounds; (v) hit confirmation; (vi) dose-response curve (DRC) of confirmed hits.
The commercial Abcam (ab273373) Angiotensin II Converting Enzyme (ACE2) Inhibitor Screening Kit and 384-well 3544 Corning low volume, black clear bottom plates were used. The reagent preparation was performed in accord with kit instruction. In order to prepare the required enzyme concentration, we dissolved […] of stock enzyme solution (concentration in stock and MW not disclosed) in 198 µL of ACE2 Dilution Buffer (provided by the Manufacturer), then aliquoted the entire volume into 25 µL and frozen at −70 °C. A substrate solution calculated for one assay well contained 0.5 µL of stock Substrate solution and 9.5 µL of ACE2 Assay Buffer, stored at −70 °C. Reference inhibitor from the kit (five µL in stock, structure, and MW not disclosed) was not aliquoted, 50 µL of ACE Assay Buffer should be added directly before the experiment.
Primary screen assay conditions. Volume: 25 µL; Concentrations: enzyme and substrate solutions prepared according to the instructions and further diluted both to 1:2 in the Assay mixture. Assay buffer: provided by the Manufacturer (composition not disclosed, see SI for reference). Compounds: 20 µM final concentrations in the Assay mixture, n = 1. Reference Inhibitors: (1) Ref. inhibitor provided by the Manufacturer, 300 nM, (n = 4); (2) Compound from Enamine library EN300-22203532, 2.5 nM, (n = 4). Temperature: 25 °C. The enzyme solution was added into corresponding plate wells (columns 1–22), and buffer was added into wells corresponding to negative (Enzyme) control (columns 23, 24). Plates were incubated for 15 min at 25 °C. Then Substrate solution was added to all experimental wells. Plates were centrifuged and measurement started in kinetic mode (Exc/Em 320/420 nm). Results processing: two time points were chosen from kinetic curves for all wells and corresponding RFU values were obtained. ΔRFU/Δt were calculated for each curve and % of inhibition values were calculated from the equation: 100%—ΔRFU of sample/ΔRFU of Enzyme control*100%, according to the recommendation of the Manufacturer.
DRC and IC50 calculations. Concentrations: enzyme and substrate solutions were diluted both to 1:2 in the Assay mixture. Assay buffer: provided by the Manufacturer (composition not disclosed). Temperature: 25 °C. Compounds: 2-fold titrated from 100 µM, n = 4. Reference Inhibitors: (1) Ref. inhibitor Abcam 2-fold titrated from 1.5 µM, (n = 4); (2) Ref. inhibitor EN300-22203532, 2-fold titrated from 20 nM, (n = 4). Compounds were incubated with enzyme for 15 min. Plates were measured in kinetic mode (Exc/Em 320/420 nm). […]

Assay [2] has as its target T1, ACE2. The assay is described as above. The following applies: DRC measured three times each, 3-fold titration, 25 µL, enzyme and substrate 1:2; read-out: IC50 of reference inhibitors in optimized conditions. In kind it is biochemical.
The mark [3] stands for this setting: dose-response of confirmed hits, as in Figure 10, read-out: IC50(ACE2).
Where [4] appears, read: dose-response, 2-fold titrated, n = 4, 15 min incubation with enzyme, 25 °C, enzyme and substrate 1:2, read-out: IC50 (DRC, Figure 9).

pIC50, pKi: −log10 of the molar value. Read-outs that look alike come from different tables or passages of the source.

T1 sequence (Q9BYF1 18-805): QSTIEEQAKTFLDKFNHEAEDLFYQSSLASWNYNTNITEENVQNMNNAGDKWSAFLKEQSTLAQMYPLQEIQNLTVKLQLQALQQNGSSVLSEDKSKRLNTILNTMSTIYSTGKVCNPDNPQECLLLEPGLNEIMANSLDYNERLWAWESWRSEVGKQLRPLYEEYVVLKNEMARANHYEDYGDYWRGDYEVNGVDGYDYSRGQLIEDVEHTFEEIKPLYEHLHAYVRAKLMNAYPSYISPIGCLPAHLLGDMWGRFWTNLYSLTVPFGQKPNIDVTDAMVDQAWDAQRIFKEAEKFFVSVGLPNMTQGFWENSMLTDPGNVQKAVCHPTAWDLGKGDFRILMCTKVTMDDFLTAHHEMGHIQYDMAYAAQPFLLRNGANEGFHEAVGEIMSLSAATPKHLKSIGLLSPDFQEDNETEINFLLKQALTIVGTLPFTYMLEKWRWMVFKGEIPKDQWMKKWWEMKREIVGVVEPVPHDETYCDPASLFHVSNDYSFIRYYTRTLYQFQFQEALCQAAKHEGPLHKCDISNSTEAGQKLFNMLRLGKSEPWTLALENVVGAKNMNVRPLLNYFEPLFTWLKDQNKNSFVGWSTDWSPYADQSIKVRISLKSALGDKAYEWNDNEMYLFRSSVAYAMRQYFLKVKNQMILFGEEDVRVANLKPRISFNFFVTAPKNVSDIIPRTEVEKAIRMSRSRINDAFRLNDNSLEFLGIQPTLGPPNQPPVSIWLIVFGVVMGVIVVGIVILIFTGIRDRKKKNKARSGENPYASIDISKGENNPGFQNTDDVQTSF

Usually pKi stands for −log10 of the Ki, conventionally taken in molar units. Turning to `CC[C@@H](C)[C@H](S)C(=O)N[C@@H](Cc1ccc(OCc2ccc(F)c(F)c2)cc1)C(=O)O` [CHEMBL251808, CC[C@@H](C)[C@H](S)C(=O)N[C@@H](Cc1ccc(OCc2ccc(F)c(F)c2)cc1)C(O)=O], the pKi at human ACE2 (CHEMBL3736) (known selective ACE2 inhibitors) was 9.07.
What is called inhibition is the drop in the measured response relative to a control, in per cent. By pIC50 is commonly meant the IC50 on a negative log10 scale, so that one unit is a factor of ten. Take `CC(NC(=O)CCCCC(=O)O)c1ccc(-c2ccc(N(C)C)cc2)cc1` (centres unmarked) [Compound 1]: on ACE2 [1] (enzyme and substrate 1:2), the inhibition at 20 µM was 38.8%. At ACE2 [1] (setting [3]), the pIC50 is 4.34.
As to `Cc1ccc2nc(-c3ccc(NC(=O)CCC(=O)O)cc3)sc2c1` [Compound 2, Cc1ccc2nc(sc2c1)-c1ccc(NC(=O)CCC([O-])=O)cc1], the inhibition at 20 µM on ACE2 [1] (enzyme and substrate 1:2) turned out to be 74.1%. Also, the pIC50 on ACE2 [1] (setting [4]) is 3.96.
`O=C(O)CC(NC(=O)c1ccc(-c2ccc(F)cc2)o1)c1ccc(F)cc1` (centres unmarked) [Compound 3]: on ACE2 [1] (enzyme and substrate 1:2), the inhibition at 20 µM worked out at 28.9%. In addition, the pIC50 at ACE2 [1] (setting [3]) is 4.33.
As to `Cc1ccc(CCC2CCN(C(=O)CN3CCCC3C(=O)O)CC2)cc1` (centres unmarked) [Compound 4], the inhibition at 20 µM at ACE2 [1] (enzyme and substrate 1:2) amounted to 54%. For the same compound, the pIC50 on ACE2 [1] (setting [3]) is 4.77.
On to `O=C(O)CSc1ccc(C(=O)/C=C/c2cnn(-c3ccccc3)c2)cc1F` [Compound 5, OC(=O)CSc1ccc(cc1F)C(=O)C=Cc1cnn(c1)-c1ccccc1], for which, at ACE2 [1] (enzyme and substrate 1:2), the inhibition at 20 µM was found to be 29.8%. The pIC50 on ACE2 [1] (setting [3]) was 4.27.
As to `CCC(C(=O)O)[S+]([O-])Cc1csc(-c2ccc3c(c2)OCO3)n1` (centres unmarked) [Compound 6], the inhibition at 20 µM at ACE2 [1] (enzyme and substrate 1:2) turned out to be 50.1%. The pIC50 at ACE2 [1] (setting [4]) was 4.17.
Turning to `O=C(NC1CN(c2ccccc2)C1=O)c1ncccc1O` (centres unmarked) [Compound 7], the inhibition at 20 µM at ACE2 [1] (enzyme and substrate 1:2) stood at 52.1%. For the same compound, at ACE2 [1] (setting [3]), the pIC50 was 3.57.
Turning to `CC(C)C[C@H](N[C@@H](Cc1cncn1Cc1cc(Cl)cc(Cl)c1)C(=O)O)C(=O)O` [MLN-4760, reference compound], the pIC50 on ACE2 [1] (setting [4]) was 6.70; on ACE2 [2], 8.60 to 9.05; in the assay on human ACE2 (CHEMBL3736) (known selective ACE2 inhibitor), 9.36. For the same compound, the “%inh_Ref EN300-22203532, Plate 1” value on ACE2 [1] (primary screen QC, 2.5 nM, n = 4, plate 1) was 69.9%. For the same compound, at ACE2 [1] (primary screen QC, 2.5 nM, n = 4, plate 2), the “%inh_Ref EN300-22203532, Plate 2” value was 72.2%.

(Values after PMC9458095, “In Vitro Evaluation of In Silico Screening Approaches in Search for Selective ACE2 Binding Chemical Probes” (Molecules, 2022).)
